# Data reported in patent US9815863B2, “Hydrogen bond forming fluoro ketolides for treating diseases” (priority 2010, dated 2017).
# Columns and labels:
# [1] = system: E. coli ribosomes (23S rRNA); assay: RNA footprinting (ribosome chemical probing), wild-type E. coli ribosomes; type: binding; conditions: 100 μM antibiotic
# Description: (§1) Ribosome chemical probing. rRNA probing was done following standard protocols (Merryman, C., and H. F. Noller. 1998. Footprinting and modification-interference analysis of binding sites on RNA, p. 237-253. In C. W. J. Smith (ed.), RNA:Protein Interactions, A Practical Approach. Oxford University Press, Oxford), with minor modifications. Briefly, 200 nM ribosomes were incubated with 100 μM antibiotic in 50 μL of buffer B (80 mM HEPES-KOH [pH 7.8], 20 mM MgCl2, 100 mM NH4Cl, 1.5 mM dithiothreitol) for 10 min at 37° C., followed by 10 min at 20° C. Modifying reagents (dimethyl sulfate [DMS], kethoxal, or 1-cyclohexyl-3-(2-morpholinoethyl)carbodiimide metho p-toluene sulfonate [CMCT]) were added and the modification reaction was carried out for 10 min at 37° C. After quenching the reaction and ethanol precipitation, rRNA was extracted and the distribution of modified nucleotides was assessed by primer extension.
# Interactions of CEM-101 with wild-type E. coli and S. aureus ribosomes in solution. […] 1987. Chloramphenicol, erythromycin, carbomycin and vernamycin B protect overlapping sites in the peptidyl transferase region of 23S ribosomal RNA. Biochimie 69:879-884). Also included in this study was a C3-cladinose cousin of CEM-101, CEM-103, which lacks the C2-linked fluorine atom.
# [2] = system: Streptococcus pneumoniae Pen^S, Tel^S, Mac^S; assay: MIC against streptococci clinical isolates (Table 3); type: cell-based; conditions: Streptococcus pneumoniae, 10 strains
# [3] = system: 2058-dimethylated ribosomes isolated from the S. aureus N315 strain; assay: RNA footprinting of A2058-dimethylated (Erm-modified) ribosomes from S. aureus N315; type: binding; conditions: S. aureus N315 ribosomes dimethylated at A2058, drugs at 100 μM
# Description: as §1
# Interaction of CEM-101 with S. aureus ribosomes dimethylated at A2058 by Erm-methyltransferase. Erm-methyltransferase modifies A2058 in 23S rRNA by consecutively adding two methyl groups to the exocyclic amino group of the adenine base. Such modification completely blocks binding of erythromycin and similar macrolides, whereas its effect on binding of ketolides is less clear (Douthwaite, S., L. H. Hansen, and P. Mauvais. 2000. Macrolide-ketolide inhibition of MLS-resistant ribosomes is improved by alternative drug interaction with domain R of 23S rRNA. Mol. Microbiol. 36:183-193; Liu, M., and S. Douthwaite. 2002. Activity of the ketolide telithromycin is refractory to Erm monomethylation of bacterial rRNA. Antimicrob. Agents Chemother. 46:1629-1633). Therefore, interaction of CEM-101 with the ribosomes isolated from a clinical S. aureus strain N315, which carries five chromosomal copies of constitutively expressed ermA gene present in the Tn554 transposon (Kuroda, M., T. Ohta, I. Uchiyama, T. Baba, H. Yuzawa, I. Kobayashi, L. Cui, A. Oguchi, K. Aoki, Y. Nagai, J. Lian, T. Ito, M. Kanamori, H. Matsumaru, A. Maruyama, H. Murakami, A. Hosoyama, Y. Mizutani-Ui, N. K. Takahashi, T. Sawano, R. Inoue, C. Kaito, K. Sekimizu, H. Hirakawa, S. Kuhara, S. Goto, J. Yabuzaki, M. Kanehisa, A. Yamashita, K. Oshima, K. Furuya, C. Yoshino, T. Shiba, M. Hattori, N. Ogasawara, H. Hayashi, and K. Hiramatsu. 2001. Whole genome sequencing of meticillin-resistant Staphylococcus aureacs. Lancet 357:1225-1240) was investigated.
# Footprinting analysis was used to test interactions of ketolides (CEM-101 and telithromycin) and cladinose-containing macrolides (CEM-103 and erythromycin) with the 2058-dimethylated ribosomes isolated from the S. aureus N315 strain. Ribosomes were incubated with the drugs (present at 100 μM concentration) and probed by DMS modification. Because dimethylated A2058 blocks progression of reverse transcriptase along the RNA template, a strong reverse transcriptase stop is observed at A2058 on the primer extension gel (Vester, B., and S. Douthwaite. 1994. Domain V of 23S rRNA contains all the structural elements necessary for recognition by the ErmE methyltransferase. J. Bacteriol. 176:6999-7004; Zhong, P., Z. Cao, R. Hammond, Y. Chen, J. Beyer, V. D. Shortridge, L. Y. Phan, S. Pratt, J. Capobianco, K. A. Reich, R. K. Flamm, Y. S. Or, and L. Katz. 1999. Induction of ribosome methylation in MLS-resistant Streptococcus pneumoniae by macrolides and ketolides. Microb. Drug Resist. 5:183-188). Therefore, it is impossible to use footprinting to evaluate interactions of macrolides with this position in the S. aureus N315 ribosomes. […]
# [4] = system: bacterial protein synthesis (E. coli S30 extract); assay: E. coli cell-free transcription-translation (TnT) S30 system, firefly luciferase synthesis; conditions: read-out: IC50 of inhibition of firefly luciferase synthesis, ribosomes 600 nM
# S. aureus ribosome = assay: Competition binding with [14C]erythromycin, S. aureus ribosome
# Description: Competition binding studies. Binding of erythromycin to E. coli and S. aureus ribosomes and competition experiments were done by size-exclusion chromatography using Bio-Gel P30 spin columns as described in Xiong, L., Y. Korkhin, and A. S. Mankin. 2005. Binding site of the bridged macrolides in the Escherichia coli ribosome. Antimicrob. Agents Chemother. 49:281-288.
# For competition binding experiments, ribosomes (100 nM) were preincubated with 100 nM [^14C]erythromycin (48.8 mCi/mmol; PerkinElmer) in 160 μL of buffer A at 37° C. for 15 min, then at 20° C. for 10 min. Competing antibiotics were added at varying concentrations, and the binding mixture was incubated at 20° C. for 100 min. The reactions were loaded onto the spin columns and the amount of ribosome-associated radioactivity was measured as described above. Binding data were analyzed using Prism software (GraphPad). Cell free transcription-translation assays.
# [5] = system: eukaryotic ribosome (rabbit reticulocyte lysate); assay: Rabbit reticulocyte cell-free translation system, luciferase synthesis; type: biochemical; conditions: concentrations up to 50 μM
# Description: The rabbit reticulocyte cell-free translation system (Promega, Cat. No. L4540) was used to assay the effect of the drugs on activity of the eukaryotic ribosome. […] Polyadenylated luciferase mRNA (Promega, Cat. No. L4561) was denatured before use by incubating the RNA at 65° C. for 3 min and then placed on ice. Translation mix (2 μL) was mixed with the rabbit reticulocyte lysate to start the reaction. The translation mix contained 0.3 μL of denatured luciferase mRNA (0.3 μg), 0.2 μL of 1 mM amino acid mixture, 0.2 μL of ribonuclease inhibitor (8U, Roche, Cat. No. 03 335 399001), 0.4 μL of 2.5 M potassium chloride, and 0.9 μL of water. Reactions were incubated at 30° C. for 30 min and then placed on ice.
smiles,measurement,setting,value
CC[C@H]1OC(=O)[C@@](C)(F)C(=O)[C@H](C)[C@@H](O[C@@H]2O[C@H](C)C[C@H](N(C)C)[C@H]2O)[C@](C)(OC)C[C@@H](C)C(=O)[C@H](C)[C@H]2N(CCCCn3cc(-c4cccc(N)c4)nn3)C(=O)O[C@]12C [CEM-101],Protection of A752 from DMS modification,[1]; E. coli ribosomes,strongly protects
same,Protection of A2058 and A2059 in domain V of 23S rRNA from modification with DMS,[1]; E. coli wild-type ribosomes,protect
same,MIC50,[2]; read-out: MIC50,0.03 µg/mL
same,MIC90,[2]; read-out: MIC90,0.03 µg/mL
same,Protection of A2059 from DMS modification (binding to Erm-modified ribosome),[3],protection of A2059 from DMS modification
same,Protection of G2505 from kethoxal modification,[3],partially protected
same,Protection of U2609 from modification with CMCT,[3],fully protected
same,IC50,[4],1.1 µM
same,Kd,"S. aureus ribosome; S. aureus ribosome, resulting from competition IC50",0.012 ± 0.001 µM
same,IC50,"S. aureus ribosome; competition with 100 nM [14C]erythromycin, 100 nM S. aureus ribosomes, read-out: IC50 of displacement of erythromycin",0.117 ± 0.003 µM
same,Effect on the synthesis of luciferase,[5],no effect
